Results reported in publication PMC10931745 (International Journal of Molecular Sciences, 2024).

Columns and labels:
[1] = system: MCF-7; test: MTT cell viability assay; assay type: cell-based, human; settings: 72 h
Experimental: (§1) The cell lines used were purchased from American Type Culture Collection (ATCC, Manassas, VA, USA). Human breast cancer cells MCF-7 and MDA-MB-231, human mammary epithelial cell line MCF-10A, and mouse BALB/3T3 embryonic fibroblasts were cultured as already described by some of us. The murine macrophage cell line RAW 264.7 was maintained in Dulbecco’s Modified Eagle’s Medium (DMEM) high glucose (4.5 g/L) supplemented with 10% Fetal Bovine Serum (FBS), 1% L-glutamine, and 100 units/mL of penicillin/streptomycin. The cell cultures were maintained at the temperature of 37 °C in a humidified atmosphere containing 5% CO2.
(§2) The 3-(4,5-dimethylthiazol-2-yl)-2,5-diphenyl-2H-tetrazolium bromide (MTT) assay (Sigma Aldrich (St. Louis, MO, USA)) was carried out to study the in vitro anticancer activities of the complexes, following the previously reported protocol. The cells were incubated for 72 h with different concentrations of the tested compounds (0.1, 1, 10, 25, 50, 100, and 500 µM) and the IC50 values were calculated from the percent (%) of control using the software GraphPad Prism 9 (GraphPad Software, La Jolla, CA, USA).

[2] = system: MDA-MB-231; test: MTT cell viability assay; assay type: cell-based, human; settings: 72 h
Experimental: as §1, §2

[3] = system: human mammary epithelial cell line MCF-10A; test: MTT assay, toxicity towards normal cells; assay type: cell-based; settings: 72 h
Experimental: as §1, §2

[4] = system: MDA-MB-231 cells; test: TUNEL assay (DNA damage/apoptosis); assay type: cell-based, human; settings: 30 µM, 24 h
Experimental: The terminal deoxynucleotidyl transferase dUTP nick end labeling (TUNEL) assay was performed to detect cell apoptosis, following the manufacturer’s protocols (CF™488A TUNEL Assay Apoptosis Detection Kit, Biotium, Hayward, CA, USA), with some modifications, as previously indicated. Nuclei staining was performed using DAPI solution (0.2 µg/mL, Sigma Aldrich, Milan, Italy). A fluorescence microscope (Leica DM 6000) was used for the cell examinations at 20× magnification. LAS-X software 3.5.7.23225 was employed for the acquisition and processing of the images, which were representative of three independent experiments.

[5] = system: NO production in LPS-stimulated RAW 264.7 macrophages; test: Griess assay, NO production; assay type: cell-based, murine; settings: 25 µM, LPS 1 µg/mL, 24 h
Experimental: The Griess assay was performed using RAW 264.7 murine macrophages to study the anti-inflammatory activity in terms of NO production. RAW 264.7 cells were plated in the 48 multi-wells and, after 24 h, treated with the tested molecules (25 µM) and the lipopolysaccharide (LPS, Sigma Aldrich, Milan, Italy) at a final concentration of 1 µg/mL. LPS is able to induce inflammation by stimulating NO production in immune system cells such as macrophages. After 24 h, the cell medium Griess reagent (Sigma Aldrich, Milan, Italy) was mixed in with a ratio of 1:1. The Griess reagent allowed for the quantification of NO released by macrophages in the treatment medium. The mixture was left for 30 min under agitation and, subsequently, the absorbance at 540 nm was measured using a multiplate reader. The obtained absorbance allowed us to calculate the NO production % compared to the absorbance obtained for the positive control, in which the cells were treated with LPS.

[6] = ABTS radical scavenging assay; assay type: biochemical
Experimental: The radical scavenging properties of the complexes on a 2,20-azino-bis(3-ethylbenzothiazoline-6-sulfonate) radical cation (ABTS^+) were evaluated as previously described.
All the complexes were used at different concentrations (5, 10, 25, 50, and 100 µg/mL) and the ABTS radical scavenging activity, measured at 730 nm using a microplate reader, was expressed as inhibition percentages (%IABTS) compared tothe control, according to the following expression:(3) IABTS (%)=ABSCTRL−ABSsample/ABSCTRL∗100 where ABSCTRL and ABSsample are the absorbance at 730 nm in the control and in the presence of samples, respectively.
IC50 values were calculated from the %IABTS using GraphPad Prism 9 software (GraphPad Inc., San Diego, CA, USA). Trolox was employed as a positive control, while caffeine and theophylline were reference compounds.

[7] = DPPH radical scavenging assay; assay type: biochemical
Experimental: The radical scavenging properties of the complexes on the 1,1-diphenyl-2-picrylhydrazil (DPPH) radical were evaluated as previously described.
All the complexes were used at different concentrations (10, 25, 50, 100, and 200 µg/mL) and the DPPH radical scavenging activity, measured at 517 nm using a microplate reader, was expressed as inhibition percentages (%IDPPH) compared to the initial concentration of DPPH (control) according to the following expression:(2) IDPPH (%)=ABSCTRL−ABSsample/ABSCTRL∗100 where ABSCTRL and ABSsample are the absorbance at 517 nm in the control and in the presence of samples, respectively.
The obtained IDPPH percentages allowed us to calculate the IC50 values using Graph-Pad Prism 9 software (GraphPad Inc., San Diego, CA, USA). Trolox was employed as a positive control, while caffeine and theophylline were reference compounds.

[8] = system: Enterococcus faecalis (ATCC 19433); test: MIC/MBC broth dilution; assay type: cell-based
Experimental: (§3) The bacterial strains used for MIC and MBC value determinations expressed as µg/mL by the broth dilution method, according to CLSI guidelines, were the following:
(§4) -3 Gram-positive: Enterococcus faecalis (ATCC® 19433^TM), Staphylococcus aureus (ATCC® 23235^TM), and Staphylococcus epidermidis (ATCC® 14990™).
(§5) Increasing concentrations of the complexes (50, 70, 100, 150, and 200 µg/mL) were incubated with bacteria plated in 96-well microplates at 37 °C overnight as already reported, and then bacterial growth was checked at a wavelength of 600 nm using a Multiskan spectrophotometer (model Multiskan Ex Microplate; Thermo Scientific, Nyon, Switzerland). MIC or MBC values were obtained by comparing cell density with a positive control (bacterial cells grown in LB medium were added with only the vehicle, DMSO). The results were representative of three independent experiments performed in triplicate. Ampicillin, Gentamicin, and Cephalosporin (Sigma Aldrich A9393) were used as the control for strain sensitivity.

[9] = system: Staphylococcus aureus (ATCC 23235); test: MIC/MBC broth dilution; assay type: cell-based
Experimental: as §3, §4, §5

[10] = system: Staphylococcus epidermidis (ATCC 14990); test: MIC/MBC broth dilution; assay type: cell-based
Experimental: as §3, §4, §5

Row | IC50 [1] [µM] | IC50 [2] [µM] | IC50 [6] [µM] | IC50 [7] [µM] | SMILES | IC50 [3] [µM] | DNA damage (green nuclear fluorescence, TUNEL) [4] | Reduction in NO production [5] | M.B.C. E. faecalis [8] [µg/mL] | M.I.C. E. faecalis [8] [µg/mL] | M.B.C. S. aureus [9] [µg/mL] | M.I.C. S. aureus [9] [µg/mL] | M.B.C. S. epidermidis [10] [µg/mL] | M.I.C. S. epidermidis [10] [µg/mL]
1 | 28.7 ± 1 | 19.4 ± 1 | 145.4 ± 1.1 | > 500 | CC(=O)[O][Ag-][c]1n(C)c2c(c(=O)n(C)c(=O)n2C)[n+]1C1CCCCC1O (centres unmarked) [AgL2OAc, 1,3,7-Trimethylxanthin-9-[cyclohexan-2-ol-8-ylidene]Ag(I) Acetate] | > 100 | formation of a green nuclear fluorescence | about 5.20% | > 200 | 150 | > 150 | 100 | > 125 | 100
2 | 73.8 ± 1.1 | 14.7 ± 1.1 | 161 ± 1 | > 500 | Cn1c(=O)c2c(n(C)[c]([Au-][I])[n+]2CC(O)c2ccccc2)n(C)c1=O (racemic) [AuL1, 1,3,7-Trimethylxanthin-9-[(2-hydroxy-2-phenyl)ethyl-8-ylidene]Au(I) Iodide] | > 100 | formation of a green nuclear fluorescence | ~6.23% | > 200 | 150 | > 200 | 150 | > 150 | 125
